According to the supplement of paper PMC10307832:

Key:
Assay in all cases: relative viability (nuclei count vs DMSO), 5 days (fraction); higher = more cells survive
VX-702 + Vorinostat = compound: NC(=O)c1ccc(N(C(N)=O)c2c(F)cccc2F)nc1-c1ccc(F)cc1F [VX-702] + O=C(CCCCCCC(=O)Nc1ccccc1)NO [Vorinostat] (partner 1 µM)
Outline: (§1)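 Relative viability was taken as the ratio of nuclei in treated wells to nuclei in vehicle wells. Lung cancer cell lines in 1536-well plates received compounds by pin tool one day after seeding, either one drug alone or a fixed anchor-drug dose plus five library-drug doses (not always all listed) in √10 steps. Nuclei were counted on 4× images after 5 days of treatment, and values are medians of duplicate plates.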

Dabrafenib + Crizotinib = compound: CC(C)(C)c1nc(-c2cccc(NS(=O)(=O)c3c(F)cccc3F)c2F)c(-c2ccnc(N)n2)s1 [Dabrafenib] + C[C@@H](Oc1cc(-c2cnn(C3CCNCC3)c2)cnc1N)c1c(Cl)ccc(F)c1Cl [Crizotinib] (partner 1 µM)
Outline: as §1

VX-702 + Bortezomib = compound: NC(=O)c1ccc(N(C(N)=O)c2c(F)cccc2F)nc1-c1ccc(F)cc1F [VX-702] + CC(C)C[C@H](NC(=O)[C@H](Cc1ccccc1)NC(=O)c1cnccn1)B(O)O [Bortezomib] (partner 0.002 µM)
Outline: as §1

Dabrafenib + Palbociclib = compound: CC(C)(C)c1nc(-c2cccc(NS(=O)(=O)c3c(F)cccc3F)c2F)c(-c2ccnc(N)n2)s1 [Dabrafenib] + CC(=O)c1c(C)c2cnc(Nc3ccc(N4CCNCC4)cn3)nc2n(C2CCCC2)c1=O [Palbociclib] (partner 0.5 µM)
Outline: as §1

Row | Cell Line | relative viability (VX-702 + Vorinostat; first compound 0.02 µM) | relative viability (VX-702 + Vorinostat; first compound 0.2 µM) | relative viability (VX-702 + Vorinostat; first compound 0.6325 µM) | relative viability (VX-702 + Vorinostat; first compound 2 µM) | relative viability (Dabrafenib + Crizotinib; first compound 0.003 µM) | relative viability (Dabrafenib + Crizotinib; first compound 0.009487 µM) | relative viability (Dabrafenib + Crizotinib; first compound 0.03 µM) | relative viability (Dabrafenib + Crizotinib; first compound 0.09487 µM) | relative viability (Dabrafenib + Crizotinib; first compound 0.3 µM) | relative viability (VX-702 + Bortezomib; first compound 0.02 µM) | relative viability (VX-702 + Bortezomib; first compound 0.2 µM) | relative viability (VX-702 + Bortezomib; first compound 0.6325 µM) | relative viability (VX-702 + Bortezomib; first compound 2 µM) | relative viability (Dabrafenib + Palbociclib; first compound 0.009487 µM) | relative viability (Dabrafenib + Palbociclib; first compound 0.03 µM) | relative viability (Dabrafenib + Palbociclib; first compound 0.09487 µM) | relative viability (Dabrafenib + Palbociclib; first compound 0.3 µM) | relative viability (Dabrafenib + Palbociclib; first compound 0.003 µM)
1 | NCI-H2347 | 0.561 | 0.594 | 0.454 | 0.591 | 0.441 | 0.698 | 0.67 | 0.674 | 0.62 | 0.995 | 0.83 | 1.02 | 1.13 | 0.513 | 0.471 | 0.476 | 0.432 | 
2 | NCI-H2405 | 1.1 | 0.909 | 0.972 | 1.1 |  | 0.78 | 0.52 | 0.772 | 0.82 | 1.04 | 0.604 | 0.702 | 0.977 | 0.555 | 0.374 | 0.491 | 0.485 | 
3 | NCI-H3122 | 1.36 | 1.03 | 1.22 | 1.1 | 0.31 | 0.272 | 0.274 | 0.259 | 0.361 | 0.991 | 0.958 | 0.987 | 0.931 | 0.207 | 0.2 | 0.167 | 0.181 | 0.186
4 | PC-3 [JPC-3] | 0.929 | 0.773 | 0.908 | 0.886 | 0.95 | 1.03 | 0.978 | 1.02 | 1 | 0.836 | 0.796 | 0.966 | 0.809 | 0.571 | 0.6 | 0.534 | 0.55 | 
5 | PC-14 | 0.806 | 0.774 | 0.74 | 0.531 | 0.938 | 0.867 | 0.878 | 0.974 | 0.982 | 0.888 | 0.852 | 0.854 | 0.991 | 0.643 | 0.618 | 0.522 | 0.65 | 
6 | RERF-LC-KJ | 0.693 | 0.686 | 0.716 | 0.694 | 0.845 | 0.791 | 0.769 | 0.779 | 0.846 | 1.18 | 1.06 | 1.2 | 1.28 | 1.09 | 1.13 | 1.02 | 1.13 | 1.11
7 | SK-LU-1 | 0.9 | 0.716 | 0.767 | 1.04 | 0.742 | 0.989 | 0.769 | 0.778 | 0.891 | 1.15 |  | 1.19 | 1.8 | 0.395 | 0.238 | 0.365 | 0.371 | 
8 | SW 1573 | 0.937 | 0.793 | 0.707 | 0.8 | 0.802 | 0.94 | 0.697 | 0.755 | 0.782 | 1.02 | 0.902 | 0.871 | 1 | 0.484 | 0.363 | 0.349 | 0.392 | 0.431
9 | UMC-11 | 0.339 | 0.293 | 0.353 | 0.376 | 0.772 | 0.636 | 0.591 | 0.572 | 0.596 | 0.717 | 0.666 | 0.689 | 0.827 | 0.31 | 0.288 | 0.327 | 0.349 | 0.33
